Data published in PMC5218480 (PLoS ONE, 2017).

Tested on: MV-4-11 cells
Test: Gene expression microarray analysis (Affymetrix PrimeView) and GSEA
Assay type: cell-based, human
Design: RFU PODN (11730768_x_at) / Fold change /veh PODN (11730768_x_at) / RFU LINC00158 (11744669_a_at) / Fold change /veh LINC00158 (11744669_a_at) / RFU DUSP10 (11751237_a_at) / Fold change /veh DUSP10 (11751237_a_at) / RFU ID3 (11757404_x_at) / Fold change /veh ID3 (11757404_x_at) / RFU PLEKHG5 (11737974_s_at) / Fold change /veh PLEKHG5 (11737974_s_at) / RFU LRRC4B (11730491_at) / Fold change /veh LRRC4B (11730491_at) / RFU GIMAP4 (11747438_a_at) / Fold change /veh GIMAP4 (11747438_a_at) / RFU KRT8 (11758183_x_at) / Fold change /veh KRT8 (11758183_x_at) / RFU CNN1 (11734310_a_at) / Fold change /veh CNN1 (11734310_a_at) / RFU VPS37D (11726825_at) / Fold change /veh VPS37D (11726825_at) / RFU C10orf10 (11716522_x_at) / Fold change /veh C10orf10 (11716522_x_at) / RFU KIR2DL2 /// KIR2DL4 /// KIR2DL5A /// KIR2DL5B /// KIR2DS1 /// KIR2DS2 /// KIR2DS3 /// KIR2DS4 /// KIR3DL3 /// KIR3DL3 /// KIR3DS1 (11738374_at) / Fold change /veh KIR2DL2 /// KIR2DL4 /// KIR2DL5A /// KIR2DL5B /// KIR2DS1 /// KIR2DS2 /// KIR2DS3 /// KIR2DS4 /// KIR3DL3 /// KIR3DL3 /// KIR3DS1 (11738374_at) / RFU C1QL1 (11718748_at) / Fold change /veh C1QL1 (11718748_at) / RFU TMPRSS4 (11747572_a_at) / Fold change /veh TMPRSS4 (11747572_a_at) / RFU HAMP (11756126_x_at) / Fold change /veh HAMP (11756126_x_at) / RFU RNFT2 (11725882_a_at) / Fold change /veh RNFT2 (11725882_a_at) / RFU NR4A2 (11747474_a_at) / Fold change /veh NR4A2 (11747474_a_at) / RFU ABCC12 (11746883_a_at) / Fold change /veh ABCC12 (11746883_a_at) / RFU TMEM136 (11760407_x_at) / Fold change /veh TMEM136 (11760407_x_at) / RFU CLDN22 /// WWC2 (11732394_at) / Fold change /veh CLDN22 /// WWC2 (11732394_at) / RFU HLA-DPB1 (11760878_x_at) / Fold change /veh HLA-DPB1 (11760878_x_at) / RFU SPINT1 (11716480_a_at) / Fold change /veh SPINT1 (11716480_a_at) / RFU GAP43 (11754022_s_at) / Fold change /veh GAP43 (11754022_s_at) / RFU A4GNT (11735810_at) / Fold change /veh A4GNT (11735810_at) / RFU PRB3 (11715151_x_at) / Fold change /veh PRB3 (11715151_x_at) / RFU TUBB4B (11761932_at) / Fold change /veh TUBB4B (11761932_at) / RFU CAPN14 (11732068_a_at) / Fold change /veh CAPN14 (11732068_a_at) / RFU TMCC2 (11721928_a_at) / Fold change /veh TMCC2 (11721928_a_at) / RFU IRGQ (11745062_a_at) / Fold change /veh IRGQ (11745062_a_at) / RFU FAM174B (11720279_a_at) / Fold change /veh FAM174B (11720279_a_at) / RFU TMPRSS4 (11748680_a_at) / Fold change /veh TMPRSS4 (11748680_a_at) / RFU FAM212B (11763350_a_at) / Fold change /veh FAM212B (11763350_a_at) / RFU PLEKHG5 (11743358_a_at) / Fold change /veh PLEKHG5 (11743358_a_at) / RFU ZSCAN30 (11745921_a_at) / Fold change /veh ZSCAN30 (11745921_a_at) / RFU CMKLR1 (11741424_a_at) / Fold change /veh CMKLR1 (11741424_a_at) / RFU LOC101060620 /// MAPK8IP1 (11723275_at) / Fold change /veh LOC101060620 /// MAPK8IP1 (11723275_at) / RFU SPTSSB (11747773_x_at) / Fold change /veh SPTSSB (11747773_x_at) / RFU PRSS12 (11739890_at) / Fold change /veh PRSS12 (11739890_at) / RFU BIN1 (11741810_x_at) / Fold change /veh BIN1 (11741810_x_at) / RFU WNT11 (11732464_a_at) / Fold change /veh WNT11 (11732464_a_at) / RFU C10orf10 (11716521_a_at) / Fold change /veh C10orf10 (11716521_a_at) / RFU C5orf56 (11738089_at) / Fold change /veh C5orf56 (11738089_at) / RFU CYB561 (11721691_x_at) / Fold change /veh CYB561 (11721691_x_at) / RFU ANKRD19P (11752326_a_at) / Fold change /veh ANKRD19P (11752326_a_at) / RFU OR2T12 /// OR2T33 /// OR2T8 (11738714_s_at) / Fold change /veh OR2T12 /// OR2T33 /// OR2T8 (11738714_s_at) / RFU VCAN (11748164_a_at) / Fold change /veh VCAN (11748164_a_at) / RFU JSRP1 (11732532_at) / Fold change /veh JSRP1 (11732532_at) / RFU KRTAP10-11 (11738290_x_at) / Fold change /veh KRTAP10-11 (11738290_x_at) / RFU MYO3A (11730013_a_at) / Fold change /veh MYO3A (11730013_a_at) / RFU EBF3 (11725865_a_at) / Fold change /veh EBF3 (11725865_a_at) / RFU CAMK2N1 (11719241_x_at) / Fold change /veh CAMK2N1 (11719241_x_at) / RFU C5orf56 (11738088_a_at) / Fold change /veh C5orf56 (11738088_a_at) / RFU OLFML3 (11715873_a_at) / Fold change /veh OLFML3 (11715873_a_at) / RFU LOC100653217 /// NTM (11731650_a_at) / Fold change /veh LOC100653217 /// NTM (11731650_a_at) / RFU MAPK11 (11762145_a_at) / Fold change /veh MAPK11 (11762145_a_at) / RFU FIZ1 (11724087_x_at) / Fold change /veh FIZ1 (11724087_x_at) / RFU OASL (11726364_x_at) / Fold change /veh OASL (11726364_x_at) / RFU SOX15 (11748057_x_at) / Fold change /veh SOX15 (11748057_x_at) / RFU CD79A (11719716_a_at) / Fold change /veh CD79A (11719716_a_at) / RFU HIST1H1D (11736915_at) / Fold change /veh HIST1H1D (11736915_at) / RFU CASKIN2 (11723855_a_at) / Fold change /veh CASKIN2 (11723855_a_at) / RFU LOC730098 (11760151_x_at) / Fold change /veh LOC730098 (11760151_x_at) / RFU OR4N2 (11742367_at) / Fold change /veh OR4N2 (11742367_at) / RFU PRRT2 (11749266_a_at) / Fold change /veh PRRT2 (11749266_a_at) / RFU SNX32 (11753110_a_at) / Fold change /veh SNX32 (11753110_a_at) / RFU CDHR5 (11726645_a_at) / Fold change /veh CDHR5 (11726645_a_at) / RFU RCAN1 (11760418_a_at) / Fold change /veh RCAN1 (11760418_a_at) / RFU FAM167A (11723789_a_at) / Fold change /veh FAM167A (11723789_a_at) / RFU FAM26E (11764081_at) / Fold change /veh FAM26E (11764081_at) / RFU ISYNA1 (11749810_s_at) / Fold change /veh ISYNA1 (11749810_s_at) / RFU ACY1 (11761880_at) / Fold change /veh ACY1 (11761880_at) / RFU 11764098_at / Fold change /veh 11764098_at / RFU SAMD14 (11745864_x_at) / Fold change /veh SAMD14 (11745864_x_at) / RFU NPB (11741838_a_at) / Fold change /veh NPB (11741838_a_at) / RFU TMPRSS6 (11731388_a_at) / Fold change /veh TMPRSS6 (11731388_a_at) / RFU KRTAP10-2 (11738614_at) / Fold change /veh KRTAP10-2 (11738614_at) / RFU ARHGAP8 /// PRR5-ARHGAP8 (11727945_x_at) / Fold change /veh ARHGAP8 /// PRR5-ARHGAP8 (11727945_x_at) / RFU KRTAP5-7 /// NADSYN1 (11734609_at) / Fold change /veh KRTAP5-7 /// NADSYN1 (11734609_at) / RFU RASL12 (11751679_a_at) / Fold change /veh RASL12 (11751679_a_at) / RFU CDKN2B (11736163_a_at) / Fold change /veh CDKN2B (11736163_a_at) / RFU PRF1 (11729649_at) / Fold change /veh PRF1 (11729649_at) / RFU, ZNF638 /// ZNF638-IT1 / Fold change vs veh, ZNF638 /// ZNF638-IT1 / RFU, PANK3 / Fold change vs veh, PANK3 / RFU, SH3YL1 / Fold change vs veh, SH3YL1 / RFU, ZEB2 / Fold change vs veh, ZEB2 / RFU, NRIP1 / Fold change vs veh, NRIP1 / RFU, PTTG1IP / Fold change vs veh, PTTG1IP / RFU, CAPN2 / Fold change vs veh, CAPN2 / RFU, MED14 / Fold change vs veh, MED14 / RFU, SNORA58 / Fold change vs veh, SNORA58 / RFU, C1orf63 / Fold change vs veh, C1orf63 / RFU, LRRFIP1 / Fold change vs veh, LRRFIP1 / RFU, NDUFAF7 / Fold change vs veh, NDUFAF7 / RFU, SLC12A2 / Fold change vs veh, SLC12A2 / RFU, IBTK / Fold change vs veh, IBTK / RFU, ESF1 / Fold change vs veh, ESF1 / Fold change vs veh, TMEM50B / RFU, TAOK1 / Fold change vs veh, TAOK1 / RFU, ACBD3 / Fold change vs veh, ACBD3 / RFU, TMA16 / Fold change vs veh, TMA16 / RFU, RWDD3 / Fold change vs veh, RWDD3 / RFU, BCAT1 / Fold change vs veh, BCAT1 / RFU, EDEM3 / Fold change vs veh, EDEM3 / RFU, TMEM33 / Fold change vs veh, TMEM33 / RFU, WDR75 / Fold change vs veh, WDR75 / RFU, AHCTF1 / Fold change vs veh, AHCTF1 / RFU, TFRC / Fold change vs veh, TFRC / RFU, ZDHHC17 / Fold change vs veh, ZDHHC17 / RFU, NOM1 / Fold change vs veh, NOM1 / RFU, ARL8B / Fold change vs veh, ARL8B / RFU, ZBTB11 / Fold change vs veh, ZBTB11 / RFU, TAMM41 / Fold change vs veh, TAMM41 / RFU, KIAA1704 /// LOC100996395 / Fold change vs veh, KIAA1704 /// LOC100996395 / RFU, ING1 / Fold change vs veh, ING1 / RFU, TRMT61B / Fold change vs veh, TRMT61B / RFU, FUBP3 / Fold change vs veh, FUBP3 / RFU, TP53 / Fold change vs veh, TP53 / RFU, TNKS2 / Fold change vs veh, TNKS2 / RFU, ZFP14 / Fold change vs veh, ZFP14 / RFU, ACTR2 / Fold change vs veh, ACTR2 / RFU, PPP3R1 / Fold change vs veh, PPP3R1 / RFU, PIK3R1 / Fold change vs veh, PIK3R1 / RFU, HNRNPA1 / Fold change vs veh, HNRNPA1 / RFU, RNF170 / Fold change vs veh, RNF170 / RFU, ZNF28 / Fold change vs veh, ZNF28 / RFU, RNGTT / Fold change vs veh, RNGTT / RFU, OGT / Fold change vs veh, OGT / RFU, BRD1 / Fold change vs veh, BRD1 / RFU, MARS / Fold change vs veh, MARS / RFU, ZNF655 / Fold change vs veh, ZNF655 / RFU, FAHD1 / Fold change vs veh, FAHD1 / RFU, BDP1 / Fold change vs veh, BDP1 / RFU, LRRCC1 / Fold change vs veh, LRRCC1 / RFU, ARID1A / Fold change vs veh, ARID1A / RFU, ZNF146 / Fold change vs veh, ZNF146 / RFU, ZNF330 / Fold change vs veh, ZNF330 / RFU, GPN3 / Fold change vs veh, GPN3 / RFU, C9orf123 / Fold change vs veh, C9orf123 / RFU, N4BP2L2 / Fold change vs veh, N4BP2L2 / RFU, ARFIP1 / Fold change vs veh, ARFIP1 / RFU, FAM179B / Fold change vs veh, FAM179B / RFU, BCL10 / Fold change vs veh, BCL10 / RFU, UHRF1BP1L / Fold change vs veh, UHRF1BP1L / RFU, BET1 / Fold change vs veh, BET1 / RFU, CNOT2 / Fold change vs veh, CNOT2 / RFU, ZNF268 / Fold change vs veh, ZNF268 / Fold change vs veh, ZNF507 / RFU, DGCR2 / Fold change vs veh, DGCR2 / RFU, WDSUB1 / Fold change vs veh, WDSUB1 / Fold change vs veh, HSP90B1 /// MIR3652 / RFU, ADSS / Fold change vs veh, ADSS / RFU, GK / Fold change vs veh, GK / RFU, ZNF148 / Fold change vs veh, ZNF148 / RFU, TAF9 / Fold change vs veh, TAF9 / RFU, SLC1A5 / Fold change vs veh, SLC1A5 / RFU, SLMO2 / Fold change vs veh, SLMO2 / RFU, ABCC4 / Fold change vs veh, ABCC4 / RFU, LOC101060439 /// RAP1B / Fold change vs veh, LOC101060439 /// RAP1B / RFU, RFX7 / Fold change vs veh, RFX7 / RFU, GTPBP10 / Fold change vs veh, GTPBP10 / RFU, CNEP1R1 / Fold change vs veh, CNEP1R1 / RFU, BIVM-ERCC5 /// ERCC5 / Fold change vs veh, BIVM-ERCC5 /// ERCC5 / RFU, ILF3 / Fold change vs veh, ILF3 / RFU 11762660_at / Fold change /veh 11762660_at / RFU VCAN (11757783_s_at) / Fold change /veh VCAN (11757783_s_at) / RFU DDX43 (11728927_at) / Fold change /veh DDX43 (11728927_at) / RFU KRT8 (11758188_x_at) / Fold change /veh KRT8 (11758188_x_at) / RFU NKD1 (11759106_at) / Fold change /veh NKD1 (11759106_at) / RFU SRD5A1 (11742802_a_at) / Fold change /veh SRD5A1 (11742802_a_at) / RFU TPSAB1 /// TPSB2 (11721975_s_at) / Fold change /veh TPSAB1 /// TPSB2 (11721975_s_at) / RFU GSTM3 (11746129_a_at) / Fold change /veh GSTM3 (11746129_a_at) / RFU IL23R (11737362_x_at) / Fold change /veh IL23R (11737362_x_at) / RFU TMEM51 (11727254_a_at) / Fold change /veh TMEM51 (11727254_a_at) / RFU PIWIL2 (11732686_x_at) / Fold change /veh PIWIL2 (11732686_x_at) / RFU ORM1 (11744905_x_at) / Fold change /veh ORM1 (11744905_x_at) / RFU CCDC152 (11743942_at) / Fold change /veh CCDC152 (11743942_at) / RFU ECM1 (11717891_a_at) / Fold change /veh ECM1 (11717891_a_at) / RFU IL23R (11748794_a_at) / Fold change /veh IL23R (11748794_a_at) / RFU TNFAIP8L3 (11732012_x_at) / Fold change /veh TNFAIP8L3 (11732012_x_at) / RFU MBOAT4 (11741988_at) / Fold change /veh MBOAT4 (11741988_at) / RFU 11764193_at / Fold change /veh 11764193_at / RFU TMEM53 (11763286_at) / Fold change /veh TMEM53 (11763286_at) / RFU MAGEB2 (11727129_at) / Fold change /veh MAGEB2 (11727129_at) / RFU TMEM200A (11744735_a_at) / Fold change /veh TMEM200A (11744735_a_at) / RFU CCDC152 (11751479_a_at) / Fold change /veh CCDC152 (11751479_a_at) / RFU FAM211A (11726209_a_at) / Fold change /veh FAM211A (11726209_a_at) / RFU RGS16 (11746705_a_at) / Fold change /veh RGS16 (11746705_a_at) / RFU VCAN (11755009_s_at) / Fold change /veh VCAN (11755009_s_at) / RFU RHOB (11743442_s_at) / Fold change /veh RHOB (11743442_s_at) / RFU RGS16 (11720943_a_at) / Fold change /veh RGS16 (11720943_a_at) / RFU RGS16 (11720944_at) / Fold change /veh RGS16 (11720944_at) / RFU, VPS4B / Fold change vs veh, VPS4B / RFU, CREB1 / Fold change vs veh, CREB1 / RFU, DNAJC13 / Fold change vs veh, DNAJC13 / RFU, GNAQ / Fold change vs veh, GNAQ / RFU, CDK5R1 / Fold change vs veh, CDK5R1 / RFU, ZRANB3 / Fold change vs veh, ZRANB3 / RFU, CUL4A / Fold change vs veh, CUL4A / RFU, CCNY / Fold change vs veh, CCNY / RFU, UFL1 / Fold change vs veh, UFL1 / RFU, COG3 / Fold change vs veh, COG3 / RFU, DIAPH2 / Fold change vs veh, DIAPH2 / RFU, SKA2 / Fold change vs veh, SKA2 / RFU, AFF3 / Fold change vs veh, AFF3 / RFU, LMF1 / Fold change vs veh, LMF1 / RFU, IPO11 / Fold change vs veh, IPO11 / RFU, DFFB / Fold change vs veh, DFFB / RFU, FOXP1 / Fold change vs veh, FOXP1 / RFU, CARD8 / Fold change vs veh, CARD8 / RFU, STRN3 / Fold change vs veh, STRN3 / RFU, ADK / Fold change vs veh, ADK / RFU, RASSF2 / Fold change vs veh, RASSF2 / RFU, WIPF1 / Fold change vs veh, WIPF1 / RFU, LARP1B / Fold change vs veh, LARP1B / RFU, RASA1 / Fold change vs veh, RASA1 / RFU, RB1 / Fold change vs veh, RB1 / RFU, PPFIA1 / Fold change vs veh, PPFIA1 / RFU, MAT2A / Fold change vs veh, MAT2A / RFU, CCT5 / Fold change vs veh, CCT5 / RFU, WDR92 / Fold change vs veh, WDR92 / RFU, CUX1 / Fold change vs veh, CUX1 / RFU, TTC7A / Fold change vs veh, TTC7A / RFU, TMEM135 / Fold change vs veh, TMEM135 / RFU, DEPTOR / Fold change vs veh, DEPTOR / RFU, CPM / Fold change vs veh, CPM / RFU, DNAJB6 / Fold change vs veh, DNAJB6 / RFU, CACNA2D3 / Fold change vs veh, CACNA2D3 / RFU, DTX4 / Fold change vs veh, DTX4 / RFU, TFCP2 / Fold change vs veh, TFCP2 / RFU, GMCL1 /// GMCL1P1 / Fold change vs veh, GMCL1 /// GMCL1P1 / RFU, AEBP2 / Fold change vs veh, AEBP2 / RFU, SNHG1 /// SNORD22 /// SNORD25 /// SNORD26 /// SNORD27 /// SNORD28 /// SNORD29 /// SNORD31 / Fold change vs veh, SNHG1 /// SNORD22 /// SNORD25 /// SNORD26 /// SNORD27 /// SNORD28 /// SNORD29 /// SNORD31 / Fold change (Aza/veh), C12orf56 (ProbeSet 11735607_a_at) / Fold change (ACY-1035/veh), C12orf56 (ProbeSet 11735607_a_at) / Fold change (Aza/veh), FGFR1OP (ProbeSet 11751329_s_at) / Fold change (ACY-1035/veh), FGFR1OP (ProbeSet 11751329_s_at) / Fold change (Aza/veh), VPS36 (ProbeSet 11739960_a_at) / Fold change (ACY-1035/veh), VPS36 (ProbeSet 11739960_a_at) / RFU SYPL1 (11715823_x_at) / Fold change /veh SYPL1 (11715823_x_at) / RFU IGFBP7 (11715501_s_at) / Fold change /veh IGFBP7 (11715501_s_at) / RFU REEP3 (11722064_at) / Fold change /veh REEP3 (11722064_at) / RFU IGLL1 (11728026_x_at) / Fold change /veh IGLL1 (11728026_x_at): dose or concentration left out as unconfirmed
Conditions: ProbeSet 11739263_x_at; LIST D

Nc1ccc(-c2cccs2)cc1NC(=O)c1ccc2c(c1)cc(C1CC1)n2CCN1CCOCC1 [ACY-1035] was tested, and the “Fold change vs veh, VPS4B” value was 0.95.
